Experimental data as given in patent publication US12247004B2, “2-amino-N-(amino-oxo-aryl-lambda6-sulfanylidene)acetamide compounds and their therapeutic use” (Oxford Drug Design Limited, priority 2019, dated 2025).
Where two headings read alike, the source gives them in different places.

What was measured:
[1] = target: Isoleucyl-tRNA synthetase (IleRS) (Escherichia coli (strain K12), UniProt P00956); assay: Isoleucyl-tRNA synthetase enzyme inhibition (AMP-Glo; single point % inhibition at 100 μM and IC50); type: biochemical; conditions: E. coli IleRS; read-out: Enzyme Inhibition - IC50, E. coli IleRS
Sequence of Isoleucyl-tRNA synthetase (IleRS) (P00956 whole entry, looked up): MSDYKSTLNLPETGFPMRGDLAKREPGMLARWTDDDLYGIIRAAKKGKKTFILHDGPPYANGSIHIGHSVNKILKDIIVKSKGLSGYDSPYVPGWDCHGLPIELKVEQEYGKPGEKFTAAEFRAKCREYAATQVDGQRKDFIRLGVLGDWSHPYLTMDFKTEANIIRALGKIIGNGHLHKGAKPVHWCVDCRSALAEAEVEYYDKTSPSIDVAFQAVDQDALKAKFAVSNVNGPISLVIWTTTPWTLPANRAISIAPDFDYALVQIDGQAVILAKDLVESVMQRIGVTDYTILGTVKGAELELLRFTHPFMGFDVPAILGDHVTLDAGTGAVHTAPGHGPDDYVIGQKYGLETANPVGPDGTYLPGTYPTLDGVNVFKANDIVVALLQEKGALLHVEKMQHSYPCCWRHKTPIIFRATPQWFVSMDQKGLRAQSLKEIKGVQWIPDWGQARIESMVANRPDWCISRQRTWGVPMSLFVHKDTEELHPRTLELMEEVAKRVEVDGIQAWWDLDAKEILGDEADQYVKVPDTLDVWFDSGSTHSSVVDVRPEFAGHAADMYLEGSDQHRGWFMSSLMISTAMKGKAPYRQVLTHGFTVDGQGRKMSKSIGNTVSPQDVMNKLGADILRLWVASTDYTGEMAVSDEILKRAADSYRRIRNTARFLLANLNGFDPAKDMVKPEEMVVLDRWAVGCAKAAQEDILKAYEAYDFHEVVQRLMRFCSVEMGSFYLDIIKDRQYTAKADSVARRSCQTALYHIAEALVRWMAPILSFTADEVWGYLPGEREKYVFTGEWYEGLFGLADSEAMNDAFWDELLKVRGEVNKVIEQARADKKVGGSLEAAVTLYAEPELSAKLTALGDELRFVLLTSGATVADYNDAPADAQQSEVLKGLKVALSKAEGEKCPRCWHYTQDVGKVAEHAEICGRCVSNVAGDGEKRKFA
Excerpt: (§1) Study 1—Enzyme Inhibition
The aminoacylation reaction catalyzed by aminoacyl-tRNA synthetases (aaRS) takes place in two steps. In the first step, aaRS activates its cognate amino acid with ATP; and in the second step the activated amino acid is loaded to its corresponding tRNA. This reaction can be summarized as follows: aaRS+aa+ATP=aaRS-aa-AMP+PPi aaRS-aa-AMP+tRNA=aa-tRNA+AMP+aaRS […]
(§2) wherein: aaRS, aminoacyl-tRNA synthetase; aa, amino acid; aaRS-aa-AMP, enzyme-bound to aminoacyl-adenylate; AMP, adenosine monophosphate; aa-tRNA, aminoacyl-tRNA, PPi, inorganic pyrophosphate.
Isoleucyl-tRNA Synthetase a. Single Point Percentage Inhibition
(§3) The activity of the pathogenic aaRSs was monitored by measuring AMP production using the commercial kit AMP-Glo (Promega, Madison, USA).
Ligand stock solutions were prepared in 100% DMSO at 10 mM concentration. An assay buffer consisting of 100 mM Tris HCl pH 7.6, 40 mM MgCl, 20 mM KCl and 150 mM NaCl was prepared in dH2O. An enzyme solution containing 51.77 μM IleRS was prepared in assay buffer to provide 30 nM final assay concentration and 75 nM reservoir concentration for a 1:2.5 dilution in the assay. A substrate solution was also prepared in assay buffer with 50 mM L-isoleucine, 10 mM ATP and 100 mg/mL tRNA. A final assay concentration of 500 μM L-isoleucine, 5 μM ATP and 1 mg/mL tRNA and reservoir concentration of 833.33 μM L-isoleucine, 8.33 μM ATP and 1.67 mg/mL tRNA was used for a 1:1.66 dilution in assay.
(§4) Enzyme percentage inhibition values were recorded in triplicate at a single point concentration of 100 μM.
(§5) Using the same enzymatic assay in a 384-well plate format, ten point concentration response curves were generated for each compound using a top concentration of 100 μM. The known inhibitor, IleAMS was used as a positive control for the IleRS assay. 100% DMSO was used as a negative control. The IC50 was calculated based on non-linear regression analysis.

[2] = target: Valyl-tRNA synthetase (ValRS) (Escherichia coli (strain K12), UniProt P07118); assay: Valyl-tRNA synthetase enzyme inhibition (AMP-Glo; single point % inhibition at 100 μM and IC50); type: biochemical
Sequence of Valyl-tRNA synthetase (ValRS) (P07118 whole entry): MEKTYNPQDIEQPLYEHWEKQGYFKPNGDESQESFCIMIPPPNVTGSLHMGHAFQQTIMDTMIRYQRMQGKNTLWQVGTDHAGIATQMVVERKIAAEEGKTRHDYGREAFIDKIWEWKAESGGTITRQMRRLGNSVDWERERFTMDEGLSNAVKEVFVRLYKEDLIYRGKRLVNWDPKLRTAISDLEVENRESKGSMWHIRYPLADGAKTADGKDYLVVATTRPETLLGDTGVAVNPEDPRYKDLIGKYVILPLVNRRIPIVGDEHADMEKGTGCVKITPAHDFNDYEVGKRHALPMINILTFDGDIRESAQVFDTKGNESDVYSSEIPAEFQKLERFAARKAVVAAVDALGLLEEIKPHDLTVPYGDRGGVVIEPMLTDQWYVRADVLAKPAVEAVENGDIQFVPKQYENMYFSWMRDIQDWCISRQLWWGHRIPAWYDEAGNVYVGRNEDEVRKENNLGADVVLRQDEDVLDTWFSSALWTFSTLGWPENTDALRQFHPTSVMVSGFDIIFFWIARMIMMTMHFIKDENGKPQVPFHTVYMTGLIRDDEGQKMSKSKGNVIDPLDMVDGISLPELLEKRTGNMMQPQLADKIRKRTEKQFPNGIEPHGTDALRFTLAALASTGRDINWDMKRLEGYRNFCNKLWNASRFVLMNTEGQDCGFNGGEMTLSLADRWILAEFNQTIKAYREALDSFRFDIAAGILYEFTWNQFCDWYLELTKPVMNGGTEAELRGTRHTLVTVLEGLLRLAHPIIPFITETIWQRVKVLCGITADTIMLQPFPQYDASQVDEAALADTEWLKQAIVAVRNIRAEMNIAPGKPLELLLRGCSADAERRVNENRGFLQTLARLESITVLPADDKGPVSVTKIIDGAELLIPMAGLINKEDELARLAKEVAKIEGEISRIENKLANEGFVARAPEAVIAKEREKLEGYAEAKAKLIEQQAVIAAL
Excerpt: as §1
The aminoacylation reaction catalyzed by aminoacyl-tRNA synthetases (aaRS) takes place in two steps. In the first step, aaRS activates its cognate amino acid with ATP; and in the second step the activated amino acid is loaded to its corresponding tRNA. This reaction can be summarized as follows: aaRS+aa+ATP=aaRS-aa-AMP+PPi aaRS-aa-AMP+tRNA=aa-tRNA+AMP+aaRS
as §2
a. Single Point Percentage Inhibition
as §3
Ligand stock solutions were prepared in 100% DMSO at 10 mM concentration. An assay buffer consisting of 100 mM Tris HCl pH 7.6, 40 mM MgCl, 20 mM KCl and 150 mM NaCl was prepared in dH2O. An enzyme solution containing 42.33 μM ValRS was prepared in assay buffer to provide 30 nM final assay concentration and 75 nM reservoir concentration for a 1:2.5 dilution in the assay. A substrate solution was also prepared in assay buffer with 50 mM L-valine, 10 mM ATP and 100 mg/mL tRNA. A final assay concentration of 500 μM L-valine, 2.5 μM ATP and 0.5 mg/mL tRNA and reservoir concentration of 833.33 μM L-valine, […] and 0.83 mg/mL tRNA was used for a 1:1.66 dilution in assay.
as §4
as §5, with “ValAMS” for “IleAMS”, “ValRS” for “IleRS”

[3] = Human cell viability / cytotoxicity (CellTiter-Glo, 24 hours); type: cell-based; conditions: human, HepG2 cells (ATCC HB-8065); HepG2 ATCC HB-8065, 24 hours; read-out: Cytotoxicity in HepG2 ATCC HB-8065 Cell Line, IC50
Method in brief: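 HepG2 cells (15,000/well, MEM with 1% NEAA and 1% pyruvate) were grown 2 days, then exposed to compounds in duplicate for 24 h at 1.28% DMSO. Viability was read as ATP by CellTiter-Glo luminescence relative to DMSO-only wells. IC50 is in μg/mL.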

[4] = target: Leucyl-tRNA synthetase (LeuRS) (Escherichia coli (strain K12), UniProt P07813); assay: Leucyl-tRNA synthetase enzyme inhibition (AMP-Glo; single point % inhibition at 100 μM and IC50); type: biochemical
Sequence of Leucyl-tRNA synthetase (LeuRS) (P07813 whole entry, looked up): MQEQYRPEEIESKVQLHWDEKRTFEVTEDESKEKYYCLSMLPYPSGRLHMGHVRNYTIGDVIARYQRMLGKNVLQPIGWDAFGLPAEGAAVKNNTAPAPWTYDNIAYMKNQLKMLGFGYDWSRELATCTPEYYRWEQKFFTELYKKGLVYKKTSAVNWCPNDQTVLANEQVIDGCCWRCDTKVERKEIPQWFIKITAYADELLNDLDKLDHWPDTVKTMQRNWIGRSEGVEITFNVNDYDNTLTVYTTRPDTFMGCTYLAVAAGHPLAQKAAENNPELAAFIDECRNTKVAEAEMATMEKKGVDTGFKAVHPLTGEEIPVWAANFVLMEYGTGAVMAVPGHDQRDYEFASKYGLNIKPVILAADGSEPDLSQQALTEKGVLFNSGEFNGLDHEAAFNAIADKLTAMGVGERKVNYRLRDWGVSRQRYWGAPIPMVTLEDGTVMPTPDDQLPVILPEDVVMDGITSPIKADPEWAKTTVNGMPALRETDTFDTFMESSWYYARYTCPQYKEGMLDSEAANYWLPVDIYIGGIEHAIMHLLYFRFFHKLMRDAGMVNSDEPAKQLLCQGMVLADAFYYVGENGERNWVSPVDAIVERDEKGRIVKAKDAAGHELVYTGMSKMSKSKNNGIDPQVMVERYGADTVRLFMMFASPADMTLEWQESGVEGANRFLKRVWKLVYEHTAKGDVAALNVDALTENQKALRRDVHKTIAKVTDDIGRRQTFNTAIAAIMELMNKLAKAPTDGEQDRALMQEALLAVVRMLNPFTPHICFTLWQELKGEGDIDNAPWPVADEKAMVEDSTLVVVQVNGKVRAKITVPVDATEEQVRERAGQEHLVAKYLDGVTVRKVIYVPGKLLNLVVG

[5] = system: E. coli UT189; assay: Efficacy in a murine model of urinary tract infection (microbial burden in urine, bladder, kidney); type: in vivo; conditions: Experiment 1, mouse UTI
Description: All animal studies were performed under UK Home Office License PA67E0BAA (protocol E9 for UTI model) with local ethical committee clearance. All studies were performed by technicians who have completed parts A, B and C of the UK Home Office Personal License course and hold current personal licenses. All experiments were performed in dedicated Biohazard 2 facilities (the site holds a Certificate of Designation). Female mice used in these studies were supplied by Janvier laboratories and were specific pathogen free. The strain of mouse used was C3H/HeNRj, which is a well characterized inbred strain. Mice were 16-20 g on receipt and were allowed to acclimatize for at least 7 days prior to any intervention. Five days prior to infection mice were transferred onto drinking water containing 5% glucose. […] It was stored at 4° C. between doses. Test articles were prepared by solubilising in water for injection, taking the salt correction factor into account. […] Mice (n=6 per group) were infected by directly administering 0.05 mL of inoculum via the urethra into the bladder under parenteral anaesthesia. Drinking water was withheld two hours pre-infection and bladders were emptied prior to infection. Once infected, infection catheters were left in the urinary tract for 10 minutes to reduce the risk of the organism flowing back out. The mice were monitored at a frequency appropriate for their clinical condition. Mouse weights were recorded at least once daily both to ensure animals remained within ethical limits and to monitor efficacy of treatment. Twenty-four hours post infection, urine was collected from pre-treatment animals and used to assess the infection level. Urine samples were quantitatively cultured onto MacConkey's agar plates and incubated at 37° C. for 24 hours before colonies were counted. In addition, five mice were euthanised by pentobarbitone overdose to provide a 24 hour pre-treatment control group. Forty-eight hours post-infection, urine was collected from all mice. Seventy-two hours post infection, the clinical condition and body weight of all remaining animals was assessed and urine samples were collected. Animals were then euthanised by pentobarbitone overdose and kidneys and bladders were removed and weighed. Tissue samples were homogenized using a Precellys 24 dual bead beater in 2 mL ice cold sterile phosphate buffered saline. Homogenates and urine samples were quantitatively cultured onto MacConkey's agar plates and incubated at 37° C. for 24 hours before colonies were counted. Data Analysis The data from the culture burdens were analysed using appropriate non-parametric statistical models (Kruskal-Wallis using Conover-Inman to make all pairwise comparisons between groups) with StatsDirect software, and compared to pretreatment and vehicle controls.

[6] = system: E. coli ATCC 25922; assay: Efficacy in a murine model of disseminated infection (microbial burden in blood, kidney, spleen); type: in vivo; conditions: mouse, harvest 5 hr
[7] = system: bacteria (ATCC reference strains); assay: Antibacterial activity, MIC by broth micro-dilution (CLSI)
[8] = 1.875 mg/kg/dose sc 1 and 3 hr post-infection
[9] = 7.5 mg/kg/dose po 1 and 3 hr post-infection
[10] = 7.5 mg/kg/dose sc 1 and 3 hr post-infection
[11] = 30 mg/kg/dose po 1 and 3 hr post-infection
[12] = 30 mg/kg/dose sc 1 and 3 hr post-infection

CC(C)[C@H](N)C(=O)N=S(N)(=O)c1cccc2ccccc12 (stereo partly drawn) [ANASIA-025]
IC50 [1]: > 100 µM
IC50 [2]: 21.9 µM
IC50 at 24 h [3]: > 64 µg/mL

CC(C)C[C@H](N)C(=O)N=[S@](N)(=O)c1scc(F)c1F.Cl [ANASIA-103-1]
IC50 [4]: 0.0195 µM
IC50 at 24 h [3]: > 64 µg/mL
Reduction in burden from vehicle control, Bladder 72 hr ([5]; 5 mg/kg/dose sc every 4 hours): 1.28 Log10 cfu/g or mL
Reduction in burden from vehicle control, Kidney 72 hr ([5]; 5 mg/kg/dose sc every 4 hours): 0.93 Log10 cfu/g or mL
Reduction in burden from vehicle control, Urine 48 hr ([5]; 5 mg/kg/dose sc every 4 hours): 1.36 Log10 cfu/g or mL
Reduction in burden from vehicle control, Urine 72 hr ([5]; 5 mg/kg/dose sc every 4 hours): 0.11 Log10 cfu/g or mL
Reduction in burden from vehicle control, Bladder 72 hr ([5]; 15 mg/kg/dose sc every 4 hours): 2.08 Log10 cfu/g or mL
Reduction in burden from vehicle control, Kidney 72 hr ([5]; 15 mg/kg/dose sc every 4 hours): 2.28 Log10 cfu/g or mL
Reduction in burden from vehicle control, Urine 48 hr ([5]; 15 mg/kg/dose sc every 4 hours): 2.14 Log10 cfu/g or mL
Reduction in burden from vehicle control, Urine 72 hr ([5]; 15 mg/kg/dose sc every 4 hours): 2.71 Log10 cfu/g or mL
Reduction in burden from vehicle control, Bladder 72 hr ([5]; 45 mg/kg/dose sc every 4 hours): 1.49 Log10 cfu/g or mL
Reduction in burden from vehicle control, Kidney 72 hr ([5]; 45 mg/kg/dose sc every 4 hours): 1.25 Log10 cfu/g or mL
Reduction in burden from vehicle control, Urine 48 hr ([5]; 45 mg/kg/dose sc every 4 hours): 1.74 Log10 cfu/g or mL
Reduction in burden from vehicle control, Urine 72 hr ([5]; 45 mg/kg/dose sc every 4 hours): 2.64 Log10 cfu/g or mL
Reduction in burden from vehicle control, Blood [6, 8]: 0.32 Log10 cfu/g or mL
Reduction in burden from vehicle control, Kidney [6, 8]: 1.26 Log10 cfu/g or mL
Reduction in burden from vehicle control, Spleen [6, 8]: 0.60 Log10 cfu/g or mL
Reduction in burden from vehicle control, Blood [6, 9]: 0.43 Log10 cfu/g or mL
Reduction in burden from vehicle control, Kidney [6, 9]: 1.28 Log10 cfu/g or mL
Reduction in burden from vehicle control, Spleen [6, 9]: 1.46 Log10 cfu/g or mL
Reduction in burden from vehicle control, Blood [6, 10]: 1.26 Log10 cfu/g or mL
Reduction in burden from vehicle control, Kidney [6, 10]: 1.66 Log10 cfu/g or mL
Reduction in burden from vehicle control, Spleen [6, 10]: 1.64 Log10 cfu/g or mL
Reduction in burden from vehicle control, Blood [6, 11]: 0.81 Log10 cfu/g or mL
Reduction in burden from vehicle control, Kidney [6, 11]: 1.59 Log10 cfu/g or mL
Reduction in burden from vehicle control, Spleen [6, 11]: 1.61 Log10 cfu/g or mL
Reduction in burden from vehicle control, Blood [6, 12]: 2.18 Log10 cfu/g or mL
Reduction in burden from vehicle control, Kidney [6, 12]: 3.06 Log10 cfu/g or mL
Reduction in burden from vehicle control, Spleen [6, 12]: 2.24 Log10 cfu/g or mL
MIC ([7]; Acinetobacter baumannii, read-out: Antibacterial Activity (MIC), E = A. baumannii B1931): 16 µg/mL
MIC ([7]; Escherichia coli, ATCC25922, read-out: Antibacterial Activity (MIC), A = E. coli ATCC 25922): 1 µg/mL
MIC ([7]; Escherichia coli, BAA2469, read-out: Antibacterial Activity (MIC), G = E. coli BAA-2469): 10.1 µg/mL
MIC ([7]; Haemophilus influenzae, ATCC49247, read-out: Antibacterial Activity (MIC), F = H. influenzae ATCC 49247): 1 µg/mL
MIC ([7]; Klebsiella pneumoniae, ATCC700603, read-out: Antibacterial Activity (MIC), C = K. pneumoniae ATCC 700603): 64 µg/mL
MIC ([7]; Pseudomonas aeruginosa, ATCC27853, read-out: Antibacterial Activity (MIC), D = P. aeruginosa ATCC 27853): 64 µg/mL

CC(C)[C@H](N)C(=O)N=[S@](N)(=O)c1cccc(OC(F)F)c1 [ANASIA-117-1]
IC50 ([2]; E. coli ValRS, read-out: Enzyme Inhibition - IC50, E. coli ValRS): 47.9 µM
